This note sets out measurements from ChEMBL document CHEMBL1134744, “Discovery and parallel synthesis of a new class of cathepsin K inhibitors” (Bioorg Med Chem Lett, 2001).

What is called Ki is a dissociation constant, usually derived from enzyme kinetics or from competition with a known ligand. The term IC50 denotes the point on the concentration scale where inhibition reaches its midpoint. Usually inhibition stands for the change of the read-out against control, counted positive when it falls.

The target in the first experiment is T1, Cathepsin K (Homo sapiens, UniProt P43235).
T1 sequence (P43235 whole entry): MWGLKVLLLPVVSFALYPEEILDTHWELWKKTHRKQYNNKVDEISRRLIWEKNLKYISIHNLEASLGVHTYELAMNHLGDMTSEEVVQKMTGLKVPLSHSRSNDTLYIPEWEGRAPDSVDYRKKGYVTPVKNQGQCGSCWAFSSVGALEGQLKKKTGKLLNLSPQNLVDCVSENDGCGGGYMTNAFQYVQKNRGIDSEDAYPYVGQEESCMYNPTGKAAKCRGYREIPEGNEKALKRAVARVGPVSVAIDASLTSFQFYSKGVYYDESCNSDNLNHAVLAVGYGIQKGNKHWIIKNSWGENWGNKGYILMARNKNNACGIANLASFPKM
Kind of experiment: Inhibitory activity against Cathepsin K.
Details: not given
In the case of `CC(C)C[C@H](NC(=O)OCc1ccccc1)C(=O)NC1CN(C(=O)[C@H](CC(C)C)NC(=O)OCc2ccccc2)CC1=O` (stereo not given in full), the affinity, expressed as Ki, was 2 nM.

Take `CC(C)[C@@H](/C=C/c1ccccc1)NC(=O)[C@@H]1CCCCN1CC(=O)c1ccccc1`: the IC50 came to 780 nM.

Another experiment deals with T1, Cathepsin K. Kind of experiment: (§1) Inhibitory activity against cathepsin K.
Details: not given
`CC[C@H](C)[C@@H](/C=C/c1ccc(Cl)cc1)NC(=O)[C@@H]1CCCCN1CC(=O)c1ccccc1` showed an IC50 of 1400 nM.

The compound `CC[C@H](C)[C@@H](/C=C/c1ccccc1)NC(=O)[C@@H]1CCCCN1CC(=O)c1ccc2c(c1)OCO2` displayed a half-inhibitory concentration (IC50) of 590 nM. Same read-out and setting: the result for `CC[C@H](C)[C@@H](/C=C/c1ccccc1)NC(=O)[C@@H]1CCCCN1CC(=O)c1ccc(OC)cc1` reads 410 nM.

As for `CC[C@H](C)[C@@H](/C=C/c1ccccc1C)NC(=O)[C@@H]1CCCCN1CC(=O)c1ccccc1`, 590 nM corresponded to half-maximal inhibition (IC50).

`CC[C@H](C)[C@@H](/C=C/c1ccccc1)NC(=O)[C@@H]1CCCCN1CC(=O)c1cc(OC)c(OC)c(OC)c1` displayed an IC50 of 1200 nM and a Ki of 790 nM. In turn, `CC[C@H](C)[C@@H](/C=C/c1ccccc1)NC(=O)[C@@H]1CCCCN1CC(=O)c1ccccc1` came in with an IC50 of 230 nM. Still for that read-out and setting: the figure for `CC(C)C[C@@H](/C=C/c1ccccc1)NC(=O)[C@@H]1CCCCN1CC(=O)c1ccccc1` is 840 nM; for `CC[C@H](C)[C@@H](/C=C/c1ccccc1)NC(=O)[C@@H]1CCCCN1CC(=O)c1ccc(Cl)cc1` it is 280 nM.

Take `CC[C@H](C)[C@@H](/C=C/c1ccccc1)NC(=O)[C@@H]1CCCCN1CC(=O)c1c(OC)cccc1OC`: the half-maximal inhibitory concentration (IC50) came to 700 nM. Still for that read-out and setting: the figure for `CC[C@H](C)[C@@H](/C=C/c1ccc(C)cc1)NC(=O)[C@@H]1CCCCN1CC(=O)c1ccccc1` is 740 nM. `COc1cc(C(=O)CN2CCCC[C@H]2C(=O)N[C@H](/C=C/c2ccccc2)CC(C)C)cc(OC)c1OC` registered an IC50 of 1500 nM.

A further experiment concerns the target T2, Cathepsin K (Homo sapiens) (UniProt P43235).
T2 sequence (whole entry): T1 sequence (P43235 whole entry)
The description is as §1. Further details: concentration or dose not given beside the values. Particulars: concentration not given here.
As for `CC[C@H](C)[C@@H](/C=C/c1ccncc1)NC(=O)[C@@H]1CCCCN1CC(=O)c1ccccc1`, the inhibition was 8%. Still for that read-out and setting: the result for `CC[C@H](C)[C@@H](/C=C/c1ccccc1)NC(=O)[C@@H]1CCCCN1CC(=O)c1cccc([N+](=O)[O-])c1` reads 11%; that for `CC[C@H](C)[C@@H](/C=C/c1ccccc1)NC(=O)[C@@H]1CCCCN1CC(=O)c1ccc(C#N)cc1`, 16%.

With `COc1cc(C(=O)CN2CCCC[C@H]2C(=O)N[C@H](/C=C/c2ccccc2)Cc2ccccc2)cc(OC)c1OC`, the inhibition was determined as 20%.

As to `CC[C@H](C)[C@@H](/C=C/c1ccccc1)NC(=O)[C@@H]1CCCCN1CC(C)=O`, the inhibition is 3%. The same measure, in the same setting: the figure for `CC[C@H](C)[C@@H](/C=C/c1ccccc1)NC(=O)[C@@H]1C=CCN1CC(=O)c1ccccc1` is 43%.

Compound `O=C(CN1CCCC[C@H]1C(=O)Nc1cccc(-c2ccccc2)c1)c1ccccc1` gave an inhibition of 2%. For `CC[C@H](C)[C@@H](/C=C/c1ccccc1)NC(=O)[C@@H]1CCCCN1CC(=O)c1ccc([N+](=O)[O-])cc1`, the inhibition was determined as 28%. Same read-out and setting: the figure for `CCC(=O)CN1CCCC[C@H]1C(=O)N[C@H](/C=C/c1ccccc1)[C@@H](C)CC` is 22%; for `CC[C@H](C)[C@H](NC(=O)[C@@H]1CCCCN1CC(=O)c1ccccc1)C(=O)Nc1ccccc1` it is 8%; for `CC[C@H](C)[C@@H](/C=C/c1ccccc1)NC(=O)[C@@H]1CCCCN1CC(O)c1cc(OC)c(OC)c(OC)c1` (stereo not given in full) it is 8%. Still for that read-out and setting: the figure for `CC[C@H](C)[C@@H](/C=C/c1ccccc1)NC(=O)[C@@H]1CCCCN1CC(=O)c1ccc(NC(C)=O)cc1` is 42%; for `CC[C@H](C)[C@@H](/C=C/c1ccccn1)NC(=O)[C@@H]1CCCCN1CC(=O)c1ccccc1` it is 26%.

Consider `O=C(CN1CCCC[C@H]1C(=O)Nc1ccc2oc3ccccc3c2c1)c1ccccc1`, for which the inhibition is below 1%. Still for that read-out and setting: the result for `CC[C@H](C)[C@@H](/C=C/c1ccccc1)NC(=O)[C@@H]1Cc2ccccc2CN1CC(=O)c1ccccc1` reads 29%. Still for that read-out and setting: the result for `CC[C@H](C)[C@@H](/C=C/c1ccccc1)NC(=O)[C@@H]1CCCN1CC(=O)c1ccccc1` reads 15%.
